From patent US4711958A, “Morpholine containing amino acid derivatives” (priority 1986, dated 1987)

Legend:
[1] = biological target: T1, renin (Homo sapiens, UniProt P00797); assay: Inhibitory effect on human renin-sheep renin substrate reaction system in vitro; type: biochemical; settings: pH 7.4, 37° C., 15 minutes, read-out: IC50 (molar concentration producing a 50% inhibition)
T1 sequence (P00797 67-406): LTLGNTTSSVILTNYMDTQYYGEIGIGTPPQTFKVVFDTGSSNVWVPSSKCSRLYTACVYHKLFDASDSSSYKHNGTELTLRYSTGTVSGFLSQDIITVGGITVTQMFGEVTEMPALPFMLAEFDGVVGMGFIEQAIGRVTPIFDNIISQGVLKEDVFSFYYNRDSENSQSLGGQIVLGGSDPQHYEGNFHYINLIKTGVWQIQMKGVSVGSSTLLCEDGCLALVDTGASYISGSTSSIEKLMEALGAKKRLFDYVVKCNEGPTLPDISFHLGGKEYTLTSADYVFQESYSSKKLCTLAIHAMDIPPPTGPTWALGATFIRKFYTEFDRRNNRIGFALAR
Description: Inhibitory effect on human renin-sheep renin substrate reaction system in vitro
The mixture was incubated for 15 minutes on a water bath at 37° C., and the reaction mixture was allowed to stand for 5 minutes on a water bath at 100° C. to stop the reaction. After cooling, 200 μl of the solution was taken up and the amount of angiotensin I produced by the addition of renin was determined by radioimmunoassay using renin riabead kit (DAINABOT).
The inhibitory effect was calculated by the following equation.
As a control, the same procedure as above was carried out by using 50 μl of dimethyl sulfoxide alone in place of the 50 μl of dimethyl sulfoxide solution containing an amino acid compound of the present invention. [formula]

[2] = biological target: T1, renin; assay: Renin inhibitory effect in a human high renin plasma; type: biochemical; set-up: 500 μl of human high renin plasma; from tissue; host or cells: human high renin plasma; settings: pH 7.0, 37° C., 60 minutes, read-out: IC50 (molar concentration producing a 50% inhibition)
Description: Renin inhibitory effect in a human high renin plasma
A mixture of 350 μl of a 0.5 M phosphate buffer (pH 7.0) containing 14 mM EDTA.2Na and a 0.3% neomycin sulfate, 50 μl of a 20 mM L-phenylalanyl-L-alanyl-L-proline as an angiotensin converting enzyme inhibitor and 100 μl of dimethyl sulfoxide solution containing an amino acid derivative of the present invention was added to 500 μl of human high renin plasma. Two hundred μl of the mixture was placed on an ice bath, at 4° C., and remaining mixture (800 μl ) was incubated for 60 minutes at 37° C. on a water bath. Two hundred μl of the incubated remaining mixture was chilled immediately on an ice bath, and the amount (A) of angiotensin I produced was determined by radioimmunoassay using renin riabead kit (DAINABOT).
The amount (B) of angiotensin I in the mixture placed on an ice bath at 4° C. was also determined by radioimmunoassay.
As a control, the same procedure as above was carried out by using 100 μl of dimethyl sulfoxide alone in place of 100 μl of dimethyl sulfoxide solution containing an amino acid compound of the present invention.
The net amount was estimated as the difference between A and B.
The inhibitory effect was calculated by the following equation. [formula]

[3] = Hypotensive effect in marmoset (high renin state, oral); type: in vivo, common marmoset; settings: conscious male marmoset, oral 30 mg/kg, tail cuff, Control 89.3
Description: Hypotensive effect in marmoset
The experiment was carried out by using common marmoset as described in K. G. Hofbauer et al., Clinical and Experimental Hypertension, Vol. A5, Nos. 7 & 8 (1983), pages 1237-1247.
Furosemide was administered orally three times to common marmoset at 15 mg per kilogram per day every other day to create a high renin state. Blood pressure of conscious marmoset was measured on the third day after the last furosemide dose.
A conscious male marmoset weighing 460 g was placed into small restraining chair. Blood pressure was measured on the tail cuff method using pretismograph. Compound C was dissolved in dilute hydrochloric acid, and administered orally at 30 mg/kg by using a catheter.

[4] = test system: plasma renin; assay: Renin inhibitory effect in plasma on common marmoset (high renin state, oral); type: in vivo; settings: oral 30 mg/kg
Description: Renin inhibitory effect in plasma on common marmoset
The experiment was carried out by using common marmoset as described in K. G. Hofbauer et al., Clinical and Experimental hypertension, Vol. A5, Nos. 7 & 8 (1983), pages 1237-1247.
Furosemide was administered orally three times to common marmoset having a lower salt diet at 15 mg per Kilogram per day every other day to create a high renin state. The experiment was carried out on the third day after the last furosemide dose.
Conscious female and male marmosets weighing 335 to 375 g were placed into small restraining chair, and by using a catheter into the femoral artery, blood collecting was carried out at intervals of 20, 40, 60, 120, 180 and 300 minutes.
Collected blood samples were centrifuged at 1200 g for 15 minutes at 4° C. Two hundred μl of the plasma was taken up and incubated for 60 minutes at 37° C., and the plasma renin activity was measured by radioimmunoassay using renin riabead kit (DAINABOT).
Compound A of this invention was dissolved in dilute hydrochloric acid, and administered orally at single dose of 30 mg/kg using catheter.

IC50 [1] [nM] | IC50 [2] [nM] | Structure (SMILES) | also measured
2.4 | 4.7 | CC(C)OC(=O)[C@H](O)[C@H](CC1CCCCC1)NC(=O)[C@H](Cc1c[nH]cn1)NC(=O)C(CC(=O)N1CCOCC1)Cc1cccc2ccccc12 (stereo partly drawn) [Compound D, (2R, 3S)-3-{N-[2-(1-Naphthylmethyl)-3-(morpholinocarbonyl)propionyl]-L-histidyl}amino-4-cyclohexyl-2-hydroxybutyric acid isopropyl ester] | 
6.6 | 30 | O=C(N[C@@H](Cc1c[nH]cn1)C(=O)N[C@@H](CC1CCCCC1)C(O)C(=O)OC1CCCCC1)C(CC(=O)N1CCOCC1)Cc1cccc2ccccc12 (mixture of isomers) [Compound E, (2RS, 3S)-3-{N-[2-(1-Naphthylmethyl)-3-(morpholinocarbonyl)propionyl]-L-histidyl}amino-4-cyclohexyl-2-hydroxybutyric acid cyclohexyl ester] | 
370 | 130 | O=C(N[C@@H](Cc1c[nH]cn1)C(=O)N[C@@H](CC1CCCCC1)C(O)C(=O)N1CCOCC1)C(CC(=O)N1CCOCC1)Cc1cccc2ccccc12 (mixture of isomers) [Compound F, 4-[(2RS, 3S)-3-{N-[2-(1-Naphthylmethyl)-3-(morpholinocarbonyl)propionyl]-L-histidyl}amino-4-cyclohexyl-2-hydroxybutyryl]morpholine] | 
290 | 260 | CC(C)CNC(=O)C(O)[C@H](CC1CCCCC1)NC(=O)[C@H](Cc1c[nH]cn1)NC(=O)C(CC(=O)N1CCOCC1)Cc1cccc2ccccc12 (mixture of isomers) [Compound B, (2RS, 3S)-3-{N-[2-(1-Naphthylmethyl)-3-(morpholinocarbonyl)propionyl]-L-histidyl}amino-4-cyclohexyl-2-hydroxy-N-isobutylbutyramide] | 
2.5 | 6.8 | O=C(N[C@@H](Cc1c[nH]cn1)C(=O)N[C@@H](CC1CCCCC1)C(O)C(=O)OC1CCCC1)C(CC(=O)N1CCOCC1)Cc1cccc2ccccc12 (mixture of isomers) [Compound C, (2RS, 3S)-3-{N-[2-(1-Naphthylmethyl)-3-(morpholinocarbonyl)propionyl]-L-histidyl)amino-4-cyclohexyl-2-hydroxybutyric acid cyclopentyl ester] | Blood pressure ([3]; 0.5 hours after administration): 78.0 mmHg; Blood pressure ([3]; 1 hour after administration): 73.3 mmHg; Blood pressure ([3]; 2 hours after administration): 66.0 mmHg; Blood pressure ([3]; 3 hours after administration): 71.0 mmHg; Blood pressure ([3]; 5 hours after administration): 71.8 mmHg; Blood pressure ([3]; 7 hours after administration): 71.7 mmHg
6.5 | 10 | CC(C)OC(=O)C(O)[C@H](CC1CCCCC1)NC(=O)[C@H](Cc1c[nH]cn1)NC(=O)C(CC(=O)N1CCOCC1)Cc1cccc2ccccc12 (mixture of isomers) [Compound A, (2RS, 3S)-3-{N-[2-(1-Naphthylmethyl)-3-(morpholinocarbonyl)propionyl]-L-histidyl)amino-4-cyclohexyl-2-hydroxybutyric acid isopropyl ester] | Inhibition percent of plasma renin activity ([4]; 20 minutes after administration, 3 animals): 68.2%; Inhibition percent of plasma renin activity ([4]; 40 minutes after administration, 3 animals): 88.1%; Inhibition percent of plasma renin activity ([4]; 60 minutes after administration, 3 animals): 87.1%; Inhibition percent of plasma renin activity ([4]; 120 minutes after administration, 3 animals): 88.8%; Inhibition percent of plasma renin activity ([4]; 180 minutes after administration, 3 animals): 79.6%; Inhibition percent of plasma renin activity ([4]; 300 minutes after administration, 2 animals): 53.4%
2.9 | 4.1 | O=C(N[C@@H](Cc1c[nH]cn1)C(=O)N[C@@H](CC1CCCCC1)C(O)C(=O)OC(CF)CF)C(CC(=O)N1CCOCC1)Cc1cccc2ccccc12 (mixture of isomers) [Compound G, (2RS, 3S)-3-{N-[2-(1-Naphthylmethyl)-3-(morpholinocarbonyl)propionyl]-L-histidyl}amino-4-cyclohexyl-2-hydroxybutyric acid 1,3-difluoro-2-propyl ester] | 
